One may read the IC50 as the midpoint of a concentration-inhibition curve. The low end stands for greater potency in that assay, the high end for weaker potency in that assay. As a reminder, the MIC is the lowest concentration that inhibits growth of the organism. What is called half-life is the time needed for the level to fall by half in the phase considered. Read a high half-life as slow decline. One may read the bioavailability as dose-corrected exposure relative to a reference, in per cent. What is called AUC(0-t) is the area under the concentration-time curve up to a stated or last time point. A lower AUC(0-t) goes with low exposure. A word on the Vd: it is a proportionality between amount in the body and measured concentration, not a real space. One may read the clearance as the volume of plasma or blood freed of the substance per unit of time. A higher clearance goes with a high capacity for elimination. The term Cmax denotes the peak of the concentration-time curve. As usually defined, the Tmax is the time at which the peak concentration occurs.

Data set [1] deals with M. tuberculosis H37Rv (ATCC27294) in J774A.1 mouse monocyte macrophages. Briefly: Intracellular anti-TB activity in macrophages. It is filed as cell-based, Mycobacterium tuberculosis. As to conditions: for Log10CFU: 3 days, control 5.13 ± 0.03; for reduction in M. tuberculosis colony forming units (CFU): 3 days exposure.
Data set [2] deals with Mycobacterium tuberculosis 3-dehydroquinate synthase (MtDHQS) (Mycobacterium tuberculosis, UniProt P9WPX9). Briefly: DHQS enzyme assay (malachite green, free phosphoric acid). The data set is classed as biochemical. As for the experimental part:
DHQS catalyse the conversion of DAHP to DHQ, and release a molecule of free phosphoric acid. The reaction was performed in a 50-µL volume with DHQS (1 μg/mL), NAD^+ (40 μg/mL), DAHP (10 μg/mL), and Tris-HCl (50 mM, pH 7.5). The solution was added to a 96-well plate and incubated for 40 min at 37 °C. Then, 100 µL of malachite green solution was added and the absorbance of the solution was measured at 620 nm[27].
We screened compounds with anti M. smegmatis activity for DHQS inhibitors. DHQS protein was pre-incubated with 0.5 μL of the test compound (10 μg/mL, dissolved in DMSO) at room temperature for 30 min in 49.5 μL of buffer (without DAHP); for the control group, 0.5 μL of DMSO was added. The reaction was initiated by adding 0.5 μL of DAHP solution followed by incubation (40 min, 37 °C). The absorbance was measured by a microplate reader. […] DHQS (1 μg/mL) was pre-incubated with increasing IMB-T130 concentrations (0.16–40 μg/mL) for 30 min at room temperature, with 1% DMSO used as a control.

The subject of data set [3] is M. smegmatis strain overexpressing MtDHQS. Put plainly: MIC by plate dilution, M. smegmatis overexpressing MtDHQS. The data set is classed as cell-based, Mycobacterium smegmatis. The following applies: for MIC: Overexpressing MtDHQS. The text has this: (§1) To overexpress the MtDHQS protein in M. smegmatis, we used the plasmid pMV261-eGFP. The DHQS gene was inserted between the promoter and eGFP gene using BamHI and HindIII restriction enzyme sites so that DHQS was in frame with eGFP. The resulting pMV261:DHQS-eGFP plasmid was transformed into competent M. smegmatis cells. Recombinant protein expression was confirmed by fluorescence microscopy and western blotting with an anti-eGFP antibody. The MICs of IMB-T130 against M. smegmatis with a control vector (pMV261-eGFP plasmid), strains overexpressing a non-related gene (MtL12), and strains overexpressing DHQS-eGFP were determined by the conventional plate dilution method.

Data set [4] relates to M. smegmatis strain with control vector (PMV261 plasmid). Put plainly: MIC by plate dilution, M. smegmatis with control vector. The data set is classed as cell-based, Mycobacterium smegmatis.
Description: as §1

Data set [5] deals with T1, DHQS (Mycobacterium tuberculosis, UniProt P9WPX9). Briefly: Circular dichroism spectrum of DHQS and its complex with IMB-T130. The data set is classed as binding. An excerpt: CD is widely used to examine protein structures in solution. In the far UV spectral region (180–240 nm), the CD spectrum reflects the absorption of peptide bonds, and provides some information about the secondary structural features of a protein[18]. We determined the CD spectrum of the native DHQS and the complex of DHQS and IMB-T130.
T1 sequence (P9WPX9 whole entry): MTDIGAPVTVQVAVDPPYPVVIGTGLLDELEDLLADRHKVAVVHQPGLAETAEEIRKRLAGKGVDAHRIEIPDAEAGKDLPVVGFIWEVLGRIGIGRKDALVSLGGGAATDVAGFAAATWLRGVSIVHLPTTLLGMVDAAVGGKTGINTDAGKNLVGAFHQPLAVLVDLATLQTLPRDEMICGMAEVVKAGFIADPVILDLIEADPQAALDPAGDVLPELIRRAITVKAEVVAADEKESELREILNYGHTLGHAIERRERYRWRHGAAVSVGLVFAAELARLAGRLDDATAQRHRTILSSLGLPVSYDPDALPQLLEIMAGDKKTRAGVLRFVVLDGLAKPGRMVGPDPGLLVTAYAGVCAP
(In general: Circular dichroism is the unequal absorption of left and right circularly polarised light.)

Data set [6] is described as follows: Oral tolerability in ICR mice. It is filed as in vivo. The protocol:
We speculated that the compound might have anti-TB activity in vivo. IMB-T130 was well tolerated in ICR mice at up to 500 mg/kg administered orally.

The target in data set [7] is T1, DHQS. Briefly: HPLC-Q-TOF mass spectrometry of intact DHQS after incubation with IMB-T130. The following applies: suggests non-covalent binding. As for the experimental part:
In this study, HPLC-Q-TOF mass spectrometry was also performed to determine the molecular mass of the protein.

The subject of data set [8] is M. smegmatis strain overexpressing MtL12. Put plainly: MIC by plate dilution, M. smegmatis overexpressing MtL12. It is filed as cell-based, Mycobacterium smegmatis. As to conditions: Mycolicibacterium smegmatis.
Description: as §1

The nature of data set [9]: Pharmacokinetic studies in rats. It is filed as in vivo. As to conditions: male, Sprague Dawley, rat; for half-life: plasma. The protocol: Pharmacokinetic parameters were determined after administration of single oral and intravenous (iv) doses of IMB-T130 at 20 and 5 mg/kg, respectively, in male Sprague Dawley rats.
Animal care and all experimental procedures were performed in accordance with local, national, and ethical principles and authority regulations, and were approved by the Institutional Animal Care and Use Committee of the Institute of Medicinal Biotechnology Institute. Sprague Dawley rats (226.5–261.2 g) were used in the pharmacokinetic studies. The formulation of IMB-T130 (4 mg/mL) was prepared in 5 mL water with 0.5% sodium carboxyl methyl cellulose for oral administration. For iv administration, 7.5 mg IMB-T130 was dissolved in 0.075 mL N-methyl pyrrolidone, and 0.6 mL of PEG400 and 0.825 mL of 20% hydroxypropyl-β-cyclodextrin (aq) were added. After vortexing for 5 min, the 5 mg/mL IMB-T130 formulation was prepared. Rats were dosed at 1 mL/kg by iv injection and at 5 mL/kg by oral gavage at 0 h. A 0.2 mL blood sample was drawn from the jugular vein at 5, 15, and 30 min, and 1, 2, 4, 6, 8, and 24 h. The blood samples were centrifuged (8000 rpm, 6 min) at 4 °C for plasma separation. The IMB-T130 plasma concentration was determined by liquid chromatography-mass spectrometry using an ACQUITY UPLC BEH C18 column (Waters; 1.7 µm, 2.1 × 50 mm)[30].

For the next data set, the system named is M. tuberculosis. As to conditions: cited from earlier work.
The target of data set [10] is T1, DHQS. Briefly: SPR interaction between DHQS and IMB-T130 (NTA sensor chip). The data set is classed as binding. The following applies: 1.875–30 μM IMB-T130. The protocol: Surface plasmon resonance (SPR) could detect interactions between compounds and proteins. DHQS protein is unstable under acidic conditions, so the combination of IMB-T130 and DHQS was detected using nitrilotriacetic acid (NTA) sensor chip. The chips were coated with […] to capture the His-tagged protein and then exposed to a concentration gradient (1.875–30 μM) of IMB-T130. The response units were determined by SPR[16],[17].
An SPR experiment was performed to examine the interaction between DHQS and IMB-T130. Because the protein was unstable under acidic conditions, CM5 sensor chips were not suitable. […] The sensor chips were first coated with Ni^2+ before capturing the purified DHQS. Next, the chip was exposed to different concentrations of IMB-T130, and the response units for five different concentrations (1.875–30 μM) of IMB-T130 were measured by SPR (BIAcore X100 instrument, GE Healthcare).

Setting [11] is: Mycolicibacterium smegmatis, read-out: MIC.

The structures appear in SMILES notation. Converted amounts (≈) assume the structure as drawn. Where two headings read alike, the source gives them in different places.

Sequence of Mycobacterium tuberculosis 3-dehydroquinate synthase (MtDHQS) (P9WPX9 whole entry): as above

Consider `CO[C@H]1/C=C/O[C@@]2(C)Oc3c(C)c(O)c4c(O)c(c(/C=N/N5CCN(C)CC5)c(O)c4c3C2=O)NC(=O)/C(C)=C\C=C\[C@H](C)[C@H](O)[C@@H](C)[C@@H](O)[C@@H](C)[C@H](OC(C)=O)[C@@H]1C` [RFP, rifampicin, reference compound], for which the results for the Log10CFU in data set [1] (0.5 μg/mL), in data set [1] (2 μg/mL) and in data set [1] (5 μg/mL) were 4.25 ± 0.07, 3.74 ± 0.05 and 3.29 ± 0.12, respectively. In [1] (5 μg/mL), the “reduction in M. tuberculosis colony forming units (CFU)” value is listed as 1.84 log10.
`O=C(Nc1nc(-c2ccccn2)cs1)c1ccc(Cl)s1` [IMB-T130, 5-chloro-N-[4-(pyridin-2-yl)-1,3-thiazol-2-yl] thiophene-2-carboxamide] had an IC50 in data set [2] (IC50, DHQS 1 μg/mL, pre-incubated 30 min at room temperature) of 2700 nM. Further, the remaining activity at 10 µg/mL in data set [2] (read-out: OD630 as % of the control (1% DMSO)) was under 50%. Moreover, in [3] (DHQS-overexpression vs PMV261 control strain), the “MIC of DHQS-overexpression strain relative to control strain” value is “eight-fold higher”. Moreover, the MIC turned out to be 2.5 µg/mL (≈ 7.77 µM) in data set [3] (setting [11]); 2.5 µg/mL (≈ 7.77 µM) in [3]; 0.312 µg/mL (≈ 0.97 µM) in data set [4]; 0.312 µg/mL (≈ 0.97 µM) in data set [4] (setting [11]); 0.312 µg/mL (≈ 0.97 µM) in data set [8]. For the same compound, at DHQS [5] (native protein 11.2%), the “β-turn composition of DHQS in the complex” value turned out to be 12.4%. On DHQS [5] (native protein 13.4%), the “random coil composition of DHQS in the complex” value is 16.8%. In addition, the “α-helix composition of DHQS in the complex” value at DHQS [5] (native protein 71.6%) was determined as 63.3%. Besides, the Log10CFU in [1] (1 μg/mL) turned out to be 4.85 ± 0.06; in data set [1] (5 μg/mL), 4.06 ± 0.03; in data set [1] (10 μg/mL), 3.77 ± 0.10. The entries for the “reduction in M. tuberculosis colony forming units (CFU)” value in data set [1] (5 μg/mL) and in [1] (10 μg/mL) were 1.07 log10 and 1.36 log10, respectively. Further, in [6] (administered orally), the “well tolerated oral dose” value is on record as “up to 500 mg/kg”. The adverse effects result in data set [6] (oral, over 72 hours) was “No adverse effects were observed”. The “intact mass of DHQS after incubation with compound” value at DHQS [7] is “did not increase”. Further, the half-life was 2.13 h in [9] (iv 5 mg/kg) and 2.17 h in [9] (po 20 mg/kg). In [9] (in vivo), this compound gave a bioavailability of 12.8%. Further, the AUC(0-t) turned out to be 1.07 ng·h/mL in data set [9] (in vivo, iv, 5 mg/kg) and 0.55 ng·h/mL in [9] (in vivo, po, 20 mg/kg). This compound also returned a Vd in data set [9] (in vivo, iv, 5 mg/kg) of 14.9 L/kg. In data set [9] (in vivo, iv, 5 mg/kg), this compound gave a clearance of 83.2 mL/min/kg. Moreover, the peak level in data set [9] (in vivo, po, 20 mg/kg) (Cmax) was 116 ng/mL. Also, the Tmax in data set [9] (in vivo, po, 20 mg/kg) worked out at 1.5 h. For the same compound, the “time exposure was higher than the MIC (80 ng/mL)” value in data set [9] (in vivo, po, 20 mg/kg) is reported as “about 4 hours”. The “minimum inhibitory concentration MIC” value with M. tuberculosis (strain not printed at the place) is 0.08 µg/mL (≈ 0.249 µM). Further, in the data set on M. tuberculosis (susceptible strains), the “anti-TB activity for susceptible strains” value is “comparable anti-TB activity to rifampicin (RFP) and isoniazid (INH)”. In addition, on DHQS [10], the SPR response units result is “significant dose-dependent response”.
As for `[H]/N=C(/N)N[C@H]1[C@H](O)[C@@H](O)[C@H](O[C@@H]2O[C@@H](C)[C@](O)(C=O)[C@H]2O[C@@H]2O[C@@H](CO)[C@H](O)[C@@H](O)[C@@H]2NC)[C@@H](N/C(N)=N\[H])[C@@H]1O` [Streptomycin, reference compound], the MIC in [3] (setting [11]), in [4] (setting [11]) and in [8] was 0.156 µg/mL (≈ 0.268 µM) each time.

Values taken from publication PMC6262012, “IMB-T130 targets 3-dehydroquinate synthase and inhibits Mycobacterium tuberculosis” (Scientific Reports, 2018).
